Key:
[1] = tested on: pressor reaction induced by 310 ng of angiotensin I; test: Intraduodenal administration to anesthetized rats, ED50; assay type: in vivo, rat
Method: (§1) 1. Intravenous administration to anesthetized rats, 50% inhibition of the pressor reaction induced by 310 ng of angiotensin I, 30 minutes after administration of the dose . . . ED50
2. Intraduodenal administration to anesthetized rats

[2] = tested on: pressor reaction induced by 310 ng of angiotensin I; test: Intravenous administration to anesthetized rats, 50% inhibition of the pressor reaction induced by 310 ng of angiotensin I; assay type: in vivo; details: Rattus norvegicus, 0.5 h, 30 minutes after administration of the dose
Method: as §1

[3] = tested on: pressor reaction triggered off by intravenous administration of angiotensin I; test: Oral administration to conscious rats, inhibition of the pressor reaction triggered off by intravenous angiotensin I; assay type: in vivo, rat; details: 1 mg/kg
[4] = Rattus norvegicus, read-out: ED50

Compound | ED50 [1] | ED50 [2] | ED50 [1, 4] | duration of the 90% inhibition of the pressor reaction [3] | inhibition of the pressor reaction triggered off by intravenous administration of angiotensin I [3]
C[C@H](N[C@@H](CC(=O)c1ccccc1)C(=O)OCc1ccccc1)C(=O)N1C(C(=O)O)CC2CCCC21 (relative stereo) [X=C6H5, Y=--, Z=O, R1=CH3, R2=C7H7, N-(1-S-Carbobenzyloxy-3-oxo-3-phenyl-propyl)-S-alanyl-2-cis,endo-azabicyclo-[3.3.0]-octane-3-carboxylic acid] | 0.25 mg/kg |  |  |  | 
CCOC(=O)[C@H](CCc1ccccc1)N[C@@H](C)C(=O)N1[C@H](C(=O)O)C[C@@H]2CCC[C@@H]21 [X=C6H5, Y=H, Z=H, R1=CH3, R2=C2H5, N-(1-S-Carbethoxy-3-phenyl-propyl)-S-alanyl-cis,endo-2-azabicyclo-[3.3.0]-octane-3-S-carboxylic acid] |  | 0.0083 mg/kg | 0.05 mg/kg | over 6 hours | 90%
C[C@H](N[C@@H](CCc1ccccc1)C(=O)O)C(=O)N1[C@H](C(=O)O)C[C@@H]2CCC[C@@H]21 [X=C6H5, Y=H, Z=H, R1=CH3, R2=H, N-(1-S-Carboxy-3-phenyl-propyl)-S-alanyl-cis,endo-2-azabicyclo-[3.3.0]-octane-3-S-carboxylic acid] |  | 0.0027 mg/kg | 0.6 mg/kg |  | 
CCOC(=O)[C@H](CC(=O)c1ccccc1)N[C@@H](C)C(=O)N1[C@H](C(=O)O)C[C@@H]2CCC[C@@H]21 [X=C6H5, Y=--, Z=O, R1=CH3, R2=C2H5, N-(1-S-carbethoxy-3-oxo-3-phenyl-propyl)-S-alanyl-cis,endo-2-azabicyclo-[3.3.0]-octane-3-S-carboxylic acid] |  |  | 0.28 mg/kg |  | 
